{"source": "patent US12257251B2", "about": "“Use of FAK inhibitor in preparation of drug for treating tumors having NRAS mutation” (INXMED (NANJING) CO., LTD., priority 2019, dated 2025)", "key": {"[1]": {"tested_on": "HMVII (NRAS^Q61K) melanoma cell line", "experiment": "HMVII CDX model (melanoma with an NRAS mutation): tumor growth", "assay_type": "in vivo, mouse", "conditions": "for Tumor growth compared to the control group (in words): HMVII model, daily treatment; for Mean TGI: daily, based on relative tumor volume on day 14", "description": "(§1) 1.1. Test compound: BI853520, which was synthesized according to the method in the patent WO2010058032. BI853520 was formulated with 0.5% hydroxyethyl cellulose (Ashland).\n(§2) 1.2. Cells: The melanoma cell line GAK was purchased from JCRB Cell Bank, and HMVII cells were purchased from Sigma. GAK originated in the inguinal lymph nodes of patients with vaginal melanoma, whereas HMVII originated in primary vaginal melanoma. GAK and HMVII cells were cultured in tissue culture flasks containing 5% CO2 at 37° C. The media were Ham's F12 containing 10% heat-inactivated FBS and Ham's F10 containing 15% FBS, respectively. All media were supplemented with 100 U/mL penicillin, […] streptomycin, and 2 mM GlutaMAX. All cell culture reagents were purchased from GIBCO.\n(§3) Both HMVII and GAK cell lines carried an NRAS mutation at the Q61 position. HMVII (NRAS^Q61K) and GAK (NRAS^Q61L)\n(§4) 1.3. Mice: 4-week-old female balb/c nude mice (purchased from Beijing Vital River Laboratory Animal Technology Co., Ltd.). After arriving in the animal room, the mice were allowed to acclimate to the new environment for at least 2 weeks before being used for assay. The animals were housed under standard conditions (temperature: 21.5±1.5° C., humidity: 55±10%). A Standard diet and autoclaved tap water were provided ad libitum. All animal care and experimental procedures were performed in accordance with the animal care ethics guidelines approved by the Medical Ethics Committee of Beijing Cancer Hospital and Research Institute.\n(§5) To establish subcutaneous tumors, HMVII and GAK cells were harvested by trypsinization, centrifuged, washed and resuspended in ice-cold PBS+5% FCS. Then 100 l of the cell suspension containing 5×10^6 cells was injected subcutaneously into the right flank of nude mice (1 site per mouse). When tumors were well established and reached a median volume of approximately 400-600 mm^3, mice were randomly assigned to the treatment group and the control group.\n(§6) 1.5. Administration: BI 853520 was formulated in 0.5% hydroxyethyl cellulose, which was intragastrically administered through gavage needle every day, and the dosage was 10 mL/Kg body weight.\n(§7) Tumor diameters were measured twice a week with calipers. The volume [mm^3] of each tumor was calculated according to the equation “tumor volume=length×diameter^2×π/6”. Animals were sacrificed at the end of the study (approximately two weeks after the start of treatment). During the study, animals with necrotic tumors or tumors exceeding 2000 mm^3 in size were sacrificed for ethical reasons.\n(§8) Tumor volumes were statistically assessed at the end of the assay. For tumor volume, relative values were used.\n(§9) The number of observations, and the median, minimum and maximum tumor volumes were calculated. For a quick overview of possible treatment effects, the following metrics were calculated: • Relative tumor volume: (T/C)\n(§10) [formula] • TGI from day 1 to day d: TGI=100×[(Cd−C1)−(Td−T1)]/(Cd−C1) • wherein, C1, T1=mean relative tumor volume in control and treatment groups at the start of the assay (day 1); • Cd, Td=mean relative tumor volume in control and treatment groups at the end of the assay (day d).\n(§11) Statistical evaluation was performed using the Student's t-test function in Microsoft Excel, using two-tailed distribution and two-sample equal variance type.\n(§12) The significance level was fixed at α=5%. […]"}, "[2]": {"tested_on": "37 different tumors (human tumor CDX)", "conditions": "across CDX models of 37 different tumors; cited from earlier work"}, "[3]": {"tested_on": "GAK (NRAS^Q61L) melanoma cell line", "experiment": "GAK CDX model (melanoma with an NRAS mutation): tumor growth", "assay_type": "in vivo, mouse", "conditions": "for Tumor growth compared to the control group (in words): GAK model, daily treatment; for Mean TGI: daily, based on relative tumor volume on day 14", "description": "as §1, §2, §3, §4, §5, §6, §7, §8, §9, §10, §11, §12"}, "[4]": {"experiment": "Body weight change (tolerability) in the HT-1080 mouse study", "assay_type": "in vivo", "conditions": "12.5 mg/kg qd, end of the assay (day 13) versus day 1", "description": "• 1. Materials and Method: • 1.1. Design of Research • Treatment began when the median tumor volume was between 70-130 mm^3. • 10 mice in the control group, and 7 mice in the treatment group. • Oral gavage once daily. • Control: 0.5% hydroxyethyl cellulose • BI 853520: 50 mg/kg, 25 mg/kg, 12.5 mg/kg, 6 mg/kg, • Tumor volume was measured 3 times a week and body weight was monitored daily. • Evaluation of treatment outcome was based on absolute volume of individual tumors. • Tolerability was assessed based on changes in body weight.\nTumor diameters were measured with calipers three times a week (Monday, Wednesday, and Friday). The volume of each tumor [in mm^3] was calculated according to the equation, “tumor volume=length×diameter^2×π/6”. To monitor the side effects of the treatment, the mice were checked daily for abnormalities and their body weights were measured daily. Animals were sacrificed at the end of the study (approximately two weeks after the start of treatment). During the study, animals with tumor necrosis or tumors larger than 2000 mm^3 were sacrificed ahead of schedule for ethical reasons.\nAt the end of the assay on day 13, statistical evaluation of tumor volume and body weight parameters was performed. […] A nonparametric approach was used, and the number of observations, median, minimum and maximum values were calculated. […]"}}, "data": [{"smiles": "COc1cc(C(=O)NC2CCN(C)CC2)c(F)cc1Nc1ncc(C(F)(F)F)c(Oc2cccc3c2C(=O)N(C)C3)n1", "note": "[BI853520]", "values": [{"measurement": "Tumor growth compared to the control group (in words)", "setting": "[1]", "value": "inhibit tumor growth"}, {"measurement": "Tumor growth compared to the control group (in words)", "setting": "[1]; listed as BI 853520", "value": "delayed tumor growth"}, {"measurement": "Mean tumor volume", "setting": "[1]; HMVII, 50 mg/kg (1st week), 25 mg/kg (2nd week), daily gavage, day 14", "value": "671 ± 606", "unit": "mm^3"}, {"measurement": "Mean TGI", "setting": "[1]; HMVII, 50 mg/kg (1st week), 25 mg/kg (2nd week)", "value": 60, "unit": "%"}, {"measurement": "Mean TGI", "setting": "[1]; HMVII, 50 mg/kg (1st week), 25 mg/kg (2nd week), listed as BI 853520", "value": 60, "unit": "%"}, {"measurement": "TGI (tumor growth inhibition) span", "setting": "[2]", "value": "0 to 107", "unit": "%"}, {"measurement": "Tumor growth compared to the control group (in words)", "setting": "[3]", "value": "inhibit tumor growth"}, {"measurement": "Tumor growth compared to the control group (in words)", "setting": "[3]; listed as BI 853520", "value": "delayed tumor growth"}, {"measurement": "Mean tumor volume", "setting": "[3]; GAK, 50 mg/kg (1st week), 25 mg/kg (2nd week), daily gavage, day 14", "value": "548 ± 144", "unit": "mm^3"}, {"measurement": "Mean TGI", "setting": "[3]; GAK, 50 mg/kg (1st week), 25 mg/kg (2nd week)", "value": 80, "unit": "%"}, {"measurement": "Mean TGI", "setting": "[3]; GAK, 50 mg/kg (1st week), 25 mg/kg (2nd week), listed as BI 853520", "value": 80, "unit": "%"}, {"measurement": "Median weight change", "setting": "[4]", "value": 5.7, "unit": "%"}]}]}
